Counter-ions that a name gives are not always drawn. Where a SMILES comes first, the peptide text is derived from it. The star is where a group is joined. Pyrrolidide = C1CCN(*)C1
Key:
purified γ-secretase = target: T1, purified γ-secretase (Homo sapiens, UniProt P49768+Q92542); assay: cell-free in vitro C100-Flag γ-secretase assay with purified enzyme; format: biochemical; settings: for The potency of compound (in vitro C100 γ-secretase assay): 200 µM, compared with DHEC, estimated by densitometry; for inhibition of γ-secretase activity (C100-Flag cleavage): 200 μM; for inhibition of γ-secretase activity (C100-Flag cleavage) / IC50: purified γ-secretase; for IC50: AICD-Flag densitometry, read-out: IC50 in the in vitro γ-secretase activity assay (C100-Flag processing)
T1 construct: made in house
Excerpt: The density of the AICD-Flag and Aβ total bands was quantified by Odyssey software (Supplementary data Fig. S5). […] The residue was then separated by Bicine/urea SDS-PAGE, together with an Aβ standard of synthetic human Aβ38, Aβ40 and Aβ42, followed by Western blot detection with anti-Aβ antibody (6E10, left panel), or quantification by ELISA (right panel). Black bars, Aβ [1–40]; gray bars, Aβ[1–42]. Data were presented as the means ± sd. […] The change in response units over time is shown. […]
γ-Secretase was purified from S-20 cells as described previously. The recombinant APP-based protein substrate of γ-secretase, namely human C100-Flag, was overexpressed in E. coli and purified by using an anti-Flag M2 resin[31]. Full length human NCT was purified as described previously (for details, see Supplementary information)[32].
Cell-free in vitro γ-secretase assays using the recombinant C100-Flag substrate and purified γ-secretase were performed as described in the Supplementary information.
Aβ1-x peptides secreted in the cell media were quantitatively measured by ELISA (IBL, Gunma, Japan) according to the standard protocol from the manufacturer. Aβ40 and Aβ42 generated in the C100-Flag γ-secretase assays stopped with 0.5% SDS (final concentration) were quantified with the human Beta Amyloid or [1–42] colorimetric ELISA kit, respectively. […]
γ-Secretase activity assays
γ-Secretase purified from S-20 cells was solubilized in 0.2% (w/v) CHAPSO in 50 mM HEPES buffer (pH 7.0) containing of 150 mM NaCl, 5 mM MgCl2 and 5 mM CaCl2, and incubated with 0.1% (w/v) PC and 1 μM or otherwise indicated […]
concentrations of substrate at 37 °C for 4 h, after which the enzymatic reactions were stopped by adding 0.5% SDS (final concentration). The samples were analyzed by Western Blot for AICD-Flag or Aβ. […]

[1] = system: hAPP cleavage by γ-secretase; assay: cleavage of APP-CTFs in HEK293 cells overexpressing hAPP; format: cell-based, human; settings: 20 or 50 μM

For `CC(C)C[C@H]1C(=O)N2CCC[C@H]2[C@]2(O)O[C@](NC(=O)[C@@H]3C=C4c5cccc6[nH]c(Br)c(c56)C[C@H]4N(C)C3)(C(C)C)C(=O)N12` [2-Bromo-α-ergocryptine, 2-bromo-α-ergocryptine methanesulfonate salt], the “The potency of compound (in vitro C100 γ-secretase assay)” value (from here on “The potency of compound”) (purified γ-secretase) was “+++”, the “inhibition of γ-secretase activity (C100-Flag cleavage)” value (from here on “inhibition of γ-secretase activity”) (purified γ-secretase) was “retained the ability to inhibit” and the IC50 (purified γ-secretase) was about 50 µM. The “cleavage of APP-CTFs / accumulation of APP-CTFs” value [1] was “inactive”.
With `CC(=O)N[C@H](C(=O)N[C@@H](Cc1ccccc1)C(=O)N1CCCC1)C(C)C` [AMBE] (Ac-Val-Phe-Pyrrolidide) the “The potency of compound” value (purified γ-secretase) was “-” and the “inhibition of γ-secretase activity” value (purified γ-secretase) was “did not show any inhibitory activity”.
`CC[C@@H](CO)NC(=O)[C@@H]1C=C2c3cccc4[nH]cc(c34)C[C@H]2N(C)C1` [Methyl-ergometrine, methylergometrine] was tested, and the “The potency of compound” value (purified γ-secretase) was “-” and the “inhibition of γ-secretase activity” value (purified γ-secretase) was “did not inhibit”.
`CCCN1C[C@H](CSC)C[C@@H]2c3cccc4[nH]cc(c34)C[C@H]21` [Pergolide, pergolide mesylate salt] was tested, and the “The potency of compound” value (purified γ-secretase) was “-” and the “inhibition of γ-secretase activity” value (purified γ-secretase) was “did not inhibit”.
For `CN1C[C@H](C(=O)N[C@]2(C)O[C@@]3(O)[C@@H]4CCCN4C(=O)[C@H](Cc4ccccc4)N3C2=O)C=C2c3cccc4[nH]cc(c34)C[C@H]21` [Ergotamine, ergotamine tartrate], the “The potency of compound” value (purified γ-secretase) was “-” and the “inhibition of γ-secretase activity” value (purified γ-secretase) was “did not inhibit”.
For `CN1C[C@H](C(=O)N[C@]2(C)O[C@@]3(O)[C@@H]4CCCN4C(=O)[C@H](Cc4ccccc4)N3C2=O)C[C@@H]2c3cccc4[nH]cc(c34)C[C@H]21` [Dihydro-ergotamine (DHE), dihydroergotamine methanesulfonate salt], the “The potency of compound” value (purified γ-secretase) was “-” and the “inhibition of γ-secretase activity” value (purified γ-secretase) was “did not inhibit”.
In the case of `CCC(C)[C@H]1C(=O)N2CCC[C@H]2[C@]2(O)O[C@](NC(=O)[C@@H]3C[C@@H]4c5cccc6[nH]cc(c56)C[C@H]4N(C)C3)(C(C)C)C(=O)N12` (stereo partly drawn) [β-Dihydro-ergocryptine, β-Dihydroergocryptine], the “The potency of compound” value (purified γ-secretase) is reported as “+” and the “inhibition of γ-secretase activity” value (purified γ-secretase) is reported as “inhibited”.
In the case of `CC(C)C[C@H]1C(=O)N2CCC[C@H]2[C@]2(O)O[C@](NC(=O)[C@@H]3C=C4c5cccc6[nH]cc(c56)C[C@H]4N(C)C3)(C(C)C)C(=O)N12` [α-Ergocryptine, α-ergocryptine], the “The potency of compound” value (purified γ-secretase) is reported as “+++” and the “inhibition of γ-secretase activity” value (purified γ-secretase) is reported as “inhibited”.
For `CC(C)C[C@H]1C(=O)N2CCC[C@H]2[C@]2(O)O[C@](NC(=O)OCc3ccccc3)(C(C)C)C(=O)N12` [CABA, [2R-(2α, 5α, 10aβ, 10bα)]-[Octahydro-10b-hydroxy-2-(1-methylethyl)-5-(2-methylpropyl)-3,6-dioxo-8H-oxazolo[3,2-a]pyrrolo[2,1-c]pyrazin-2-yl]-carbamic acid], the IC50 (purified γ-secretase) was about 100 µM and the “cleavage of APP-CTFs / accumulation of APP-CTFs” value [1] was “accumulation of APP-CTFs only when administered at a concentration of 50 μM”.
For `CN1C[C@H](CNC(=O)OCc2ccccc2)C[C@@H]2c3cccc4c3c(cn4C)C[C@H]21` [Metergoline, metergoline], the “The potency of compound” value (purified γ-secretase) was “-” and the “inhibition of γ-secretase activity” value (purified γ-secretase) was “did not inhibit”.
